Measurements as given in US8957091B2, “Use of quinolinone derivatives as a research tool” (Centre National de la Recherche Scientifique, priority 2010, dated 2015).
Entries after “also recorded” stand apart in the source; their conditions may differ. Where two headings read alike, the source gives them in different places.

What was measured:
Format in all cases: cell-based
[1] = tested on: C3H10T1/2 cells; assay: Activation of osteogenic differentiation of C3H10T1/2 cells (alkaline phosphatase activity); settings: for stimulation of osteogenesis: induction of alkaline phosphatase after 6 days
Experimental: The pluripotent fibroblast cell line C3H10T1/2 (ATCC) was cultured under the conditions recommended by the ATCC. The stimulation of the differentiation of these cells was carried out using increasing concentrations of compounds according to the methods described by Chen et al. and Frank-Kamenetsky et al. (Chen et al. 2002; Frank-Kamenetsky et al. 2002). The activation by the compounds of general formula (I) causes differentiation of the cell line and enables the latter to express alkaline phosphatase. It was thus possible to measure the activity of the compounds via the measurement of alkaline phosphatase activity. By way of comparison, the activity of the SAG compound (Chen et al. 2002), an Smo activator, was tested under the same conditions as those used to test the compounds of general formula (I).
(§1) The C3H10T1/2 cells were seeded onto 96-well plates at a density of 5×10^3 cells per well, 24 hours before the addition of the test compounds at a concentration ranging from 10 nM to 10 μM in DMEM culture medium supplemented with 10% of fetal calf serum. The tests were carried out in quadruplicate. The plates were then incubated for 5-6 days at a temperature of 37° C. under an atmosphere of 5% CO2. The cells were then washed in cold phosphate buffer (phosphate buffered saline: PBS) and then lysed by sonication at 4° C. in 50 μl of a solution containing 0.9% of NaCl and 0.2% of Triton X-100.
(§2) The alkaline phosphatase in the resulting lysates was then measured according to the method described by Pepinsky et al. (Pepinsky et al. 1998). After the addition of […] of reaction buffer (200 mM Tris-HCL; pH 10.5; 0.4 M of 2-amino-2-methylpropanol and 8 mM of MgCl2) and of 50 μl of substrate (4 mM of disodium p-nitrophenyl phosphate), the lysates were incubated at 37° C. for 30-60 min and then the optical density was read at a wavelength of 415 nm.

[2] = tested on: C3H10T1/2 mesenchymal stem cells; assay: Modulation by IWR1 of differentiation stimulated by compound 1 or SAG
Experimental: For the experiments in the presence of forskolin, compound 1 (1 μM) and SAG (0.3 μM) were used to stimulate differentiation in the presence of increasing concentrations (1, 3 and 10 μM) of forskolin (Sigma). The IWR1 compound (Sigma), for its part, was used at 10 μM on an activation by compound 1 at 1 μM or SAG at 0.1 μM. The alkaline phosphatase activity was measured as previously.

[3] = target: T1, Smo2 sites (Mus musculus, UniProt P56726); assay: Inhibition of C3H10T1/2 differentiation (alkaline phosphatase activity) induced by compound 1 or compound 6; settings: for selectivity between Smo1 and Smo2 sites (in words): Smo1 stimulated by SAG, Smo2 stimulated by compound 1; for C3H10T1/2 cell differentiation IC50 Smo1/IC50 Smo2: ratio of mean IC50 values, Smo1 stimulated by SAG 0.1 μM, Smo2 by compound 1 1 μM
T1 construct: host or cells: C3H10T1/2
Experimental: as §1, §2

[4] = target: T2, Smo1 sites (Mus musculus, UniProt P56726); assay: Inhibition of C3H10T1/2 differentiation (alkaline phosphatase activity) induced by SAG; settings: for IC50: alkaline phosphatase activity induced by SAG (0.1 μM)
T2 construct: host or cells: C3H10T1/2
Experimental: as §1, §2

[5] = C3H 10T1/2, antagonist at 10 μM, induced by compound 1 (1 μM), C3H10T1/2 cells, read-out: Smo2 Inhibition 10 μM
[6] = alkaline phosphatase activity induced by compound 1 (1 μM), C3H10T1/2 cells, read-out: Smo2 IC50
[7] = C3H 10T1/2, antagonist at 10 μM, induced by SAG (0.1 μM), C3H10T1/2 cells, read-out: Smo1 Inhibition 10 μM
[8] = alkaline phosphatase activity induced by compound 1 (1 μM), mean ± SEM of 2 to 6 experiments, read-out: IC50 μM, C3H10T1/2, Compound 1
[9] = alkaline phosphatase activity induced by compound 6 (3 μM), mean ± SEM of 2 to 6 experiments, read-out: IC50 μM, C3H10T1/2, Compound 6
[10] = antagonist at 10 μM, induced by compound 1 (1 μM), C3H10T1/2 cells

T2 sequence (P56726 33-793): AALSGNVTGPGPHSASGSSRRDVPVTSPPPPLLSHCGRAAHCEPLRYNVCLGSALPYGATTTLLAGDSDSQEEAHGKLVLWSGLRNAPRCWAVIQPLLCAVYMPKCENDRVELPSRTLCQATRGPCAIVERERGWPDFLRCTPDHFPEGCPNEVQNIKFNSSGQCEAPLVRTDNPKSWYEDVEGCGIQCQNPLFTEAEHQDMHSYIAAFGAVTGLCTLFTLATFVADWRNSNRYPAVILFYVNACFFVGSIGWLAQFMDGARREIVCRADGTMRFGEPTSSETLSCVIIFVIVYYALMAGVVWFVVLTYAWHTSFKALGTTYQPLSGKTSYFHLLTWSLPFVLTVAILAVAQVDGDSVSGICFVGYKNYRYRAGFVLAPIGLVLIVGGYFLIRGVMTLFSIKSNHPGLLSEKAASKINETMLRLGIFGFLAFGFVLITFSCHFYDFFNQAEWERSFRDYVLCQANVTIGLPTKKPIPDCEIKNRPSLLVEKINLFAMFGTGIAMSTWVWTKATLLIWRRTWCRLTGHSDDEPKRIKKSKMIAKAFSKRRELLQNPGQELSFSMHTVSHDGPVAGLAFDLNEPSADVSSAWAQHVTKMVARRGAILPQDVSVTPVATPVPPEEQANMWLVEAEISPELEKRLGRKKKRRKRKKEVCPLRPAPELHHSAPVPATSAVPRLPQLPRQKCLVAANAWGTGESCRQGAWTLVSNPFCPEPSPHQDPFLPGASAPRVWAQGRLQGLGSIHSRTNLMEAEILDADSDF
T1 sequence (P56726 33-793): as above

In the case of `CCCCCCn1c(=O)c(C(=O)Nc2ccc(C(=O)OC(C)(C)C)cc2)c(O)c2ccccc21` [compound 6, tert-butyl 4-(1-hexyl-4-hydroxy-2-oxo-1,2-dihydroquinoline-3-carboxamido)benzoate], the stimulation of osteogenesis [1] is reported as “have the capacity to stimulate osteogenesis”.
For `O=C(Nc1cccc2cccnc12)c1ccc(N2C(=O)[C@@H]3[C@H](C2=O)[C@@H]2C=C[C@H]3C2)cc1` [IWR1], the “effect on the activity of SAG” value ([2]; IWR1 10 μM, SAG at 0.1 μM) was “does not modify; also recorded: does not affect”, the “effect on the activity of compound 1 (in words)” value ([2]; IWR1 10 μM, compound 1 at 1 μM) was “inhibits the activity of compound 1” and the “reduction of the activity of compound 1” value ([2]; IWR1 10 μM, compound 1 at 1 μM) was 60%. The IC50 ([2]; dose-response curve of compound 1 with IWR1, read-out: IC50 with respect to alkaline phosphatase inhibition) was 2.5 µM.
For `CCCCCCn1c(=O)c(C(=O)Nc2ccc(C(=O)OCCC)cc2)c(O)c2ccccc21` [compound 1, propyl 4-(1-hexyl-4-hydroxy-2-oxo-1,2-dihydroquinoline-3-carboxamido)benzoate], the “maximum stimulation compared with SAG” value ([1]; dose-response curves produced in parallel) was “greater than that of the Smo agonist SAG” and the stimulation of osteogenesis [1] was “have the capacity to stimulate osteogenesis”.
With `Cc1nn(-c2ccccc2)c(C)c1/C=N/N1CCN(Cc2ccccc2)CC1` [SANT-1] the inhibition at 10 µM [3, 5] was 71%, the “selectivity between Smo1 and Smo2 sites (in words)” value [3] was “comparable affinities” and the IC50 [3, 6] was 0.06 ± 0.02 µM. For the same compound, the “C3H10T1/2 cell differentiation IC50 Smo1/IC50 Smo2” value [3] was 1.5, the inhibition at 10 µM [4, 7] was 100% and the IC50 ([4]; C3H10T1/2 cells) was 0.04 ± 0.01 µM.
Compound `COc1cc(C(=O)NC(=S)Nc2ccc(C)c(NC(=O)c3ccc(-c4ccccc4)cc3)c2)cc(OC)c1OC` [MRT-81] has an inhibition at 10 µM [3, 5] of 100%, an IC50 [3, 8] of 0.06 µM and an IC50 [3, 9] of 0.06 µM. The “times more selective with respect to Smo2 sites” value ([3]; compound 1 versus SAG stimulation) was 1.3 times, the “C3H10T1/2 cell differentiation IC50 Smo1/IC50 Smo2” value [3] was 0.9 and the inhibition at 10 µM [4, 7] was 100%. The IC50 ([4]; C3H10T1/2 cells) was 0.06 ± 0.02 µM.
For `COc1cccc(CN(C(=O)CC(C)(C)C)[C@H]2C[C@@H](C(=O)N3CCNCC3)N(Cc3ccc4c(c3)OCO4)C2)c1` [Cur61414], the “selectivity between Smo1 and Smo2 sites (in words)” value [3] was “much more selective with respect to Smo1 sites than Smo2 sites”, the IC50 [3, 6] was 5.7 ± 1.6 µM and the IC50 [3, 8] was 5.7 ± 1.6 µM. The IC50 [3, 9] was 7 ± 1 µM, the “Smo2 Inhibition 10 μM” value [3, 10] was “weaker inhibition” and the “C3H10T1/2 cell differentiation IC50 Smo1/IC50 Smo2” value [3] was 17. The “selectivity for the Smo1 site compared with the Smo2 site” value ([4]; SAG versus compound 1 stimulation) was 17 fold.
In the case of `COc1cc(C(=O)NC(=S)Nc2cccc(NC(=O)c3ccc(-c4ccc(F)cc4)cc3)c2)cc(OC)c1OC` [MRT-79], the “selectivity between Smo1 and Smo2 sites (in words)” value [3] is reported as “more selective with respect to Smo2 sites than the Smo1 sites” and the “C3H10T1/2 cell differentiation IC50 Smo1/IC50 Smo2” value [3] is reported as 0.08.
`COc1cc(C(=O)NC(=O)Nc2cccc(NC(=O)c3ccccc3)c2)cc(OC)c1OC` [MRT-14] was tested, and the inhibition at 10 µM [3, 5] was 95%, the “selectivity between Smo1 and Smo2 sites (in words)” value [3] was “comparable affinities” and the “C3H10T1/2 cell differentiation IC50 Smo1/IC50 Smo2” value [3] was 2.5. For the same compound, the IC50 ([3]; response induced by compound 1, read-out: affinity (IC50) for compound 1) was 0.32 µM, the IC50 ([3]; response induced by compound 6, read-out: affinity (IC50) for compound 6) was 0.4 µM and the inhibition at 10 µM [4, 7] was 100%. It also gave an IC50 ([4]; C3H10T1/2 cells) of 0.13 ± 0.05 µM.
In the case of `CC1=C2C[C@H]3[C@@H](CC=C4C[C@@H](O)CC[C@@]43C)[C@@H]2CC[C@]12O[C@@H]1C[C@H](C)CN[C@H]1[C@H]2C` [Cyclopamine, cyclopamine], the inhibition at 10 µM ([3]; C3H 10T1/2, read-out: Smo2 Inhibition 10 μM) is reported as 48%, the “Smo2 Inhibition 10 μM” value [3, 10] is reported as “weaker inhibition” and the inhibition at 10 µM ([4]; C3H 10T1/2, read-out: Smo1 Inhibition 10 μM) is reported as 98%. The “Smo1 Inhibition 10 μM” value ([4]; antagonist at 10 μM, induced by SAG (0.1 μM), C3H10T1/2 cells) was “complete inhibition”.
